In patent publication US10106535B2, “Histone deacetylase inhibitors and compositions and methods of use thereof” (CHDI Foundation, Inc., priority 2013, dated 2018):

What follows are compounds tested on cellular histone deacetylase enzymatic activity in Jurkat E6-1 cells (assay: Inhibition of cellular HDAC activity in Jurkat E6-1 cells, fluorogenic substrate Boc-Lys(Tfa)-AMC). Conditions: Homo sapiens, read-out: Cell IC50.
Assay type: cell-based
From the text: Example 50: Analysis of Inhibition of Cellular HDAC Activity with Class IIa Histone Deacetylase (HDAC) Inhibitors
The potency of Class IIa Histone Deacetylase (HDAC) inhibitors is quantified by measuring the cellular histone deacetylase enzymatic activity using the fluorogenic substrate, Boc-Lys(Tfa)-AMC. After penetration in Jurkat E6-1 cells, the substrate is deacetylated to Boc-Lys-AMC. After cell lysis and cleavage by trypsin, the fluorophore AMC is released from the deacetylated substrate only. The fluorescence of the sample is directly related to the histone deacetylase activity in the sample.
Jurkat E6.1 cells are cultured according to standard cell culture protocols in Jurkat E6.1 Growth Media (RPMI without phenol red, 10% FBS, 10 mM HEPES, and 1 mM Sodium Pyruvate). Jurkat E6.1 cells are counted using a Coulter Counter and resuspended in Jurkat E6.1 growth media at a concentration of 75,000 cells/35 μl. 35 μl or 75,000 cells is seeded into Greiner microtitre assay plates. The plates are then incubated at 37° C. and 5% CO2 while other assay components are being prepared.
Serial dilutions of the HDAC inhibitors and control reference compound (1-(5-(3-((4-(1,3,4-oxadiazol-2-yl)phenoxy)methyl)-1,2,4-oxadiazol-5-yl)thiophen-2-yl)-2,2,2-trifluoroethanone) are made by first resuspending the lyophilized compound to a final concentration of 10 mM in 100% DMSO. Stocks of 70 μl aliquots of the 10 mM compound in DMSO are prepared and stored at −20° C. From one stock aliquot of each compound to be tested and the reference compound, a 16-point serial dilution is prepared according to Table 1 using a 125 μl 16-channel Matrix multi-channel pipette.
2 μl (200×) of each diluted solution and each control (full activity: 100% DMSO alone or full inhibition 1 mM) is stamped into V-bottom polypropylene 384-well compound plates using either the Bravo, Janus, or 12.5 μl 16-channel Matrix multi-channel pipette. Each well with the 200× compound solution is diluted 1:20 by the addition of 38 μl Jurkat assay buffer+DMSO (9.5% DMSO, RPMI without phenol red, 0.09% FBS, 9 mM Hepes, and 0.9 mM Sodium Pyruvate equilibrated to room temperature)
5× (500 μM) substrate is prepared just prior to the addition to the assay. The 5× substrate is prepared by diluting a 100 mM Boc-Lys(Tfa)-AMC in DMSO solution 1:200 by adding it drop-wise to Jurkat assay medium (RPMI without phenol red, 0.1% FBS, 10 mM Hepes, and 1 mM Sodium Pyruvate equilibrated to 37° C.) while vortexing at slow speed to prevent precipitation.
10 ml of 3× lysis buffer is prepared with 8.8 ml of 3× stock lysis buffer (50 mM Tris-HCl, pH 8.0, 137 mM NaCl, 2.7 mM KCl, 1 mM MgCl2, 1% Nonidet P40 Substitute equilibrated to room temperature) and 1.2 ml of 3 mg/ml Trypsin equilibrated to room temperature.
5 μl of each solution of 1:20 diluted compound from above is transferred to the Greiner microtitre assay plates with 75,000 cells/well using the Bravo. Cells are then incubated for 2 hours at 37° C. and 5% CO2. The assay is then started by adding 10 μl of 5× (500 μM) substrate to the assay plate using either the Bravo or 16-channel Matrix multi-channel pipette. The cells are then incubated for 3 hours at 37° C. and 5% CO2. Next, 25 μl of 3× lysis buffer is added to each well using either the 125 μl 16 channel pipette or the Bravo. The assay plate is then incubated overnight (15-16 hours) at 37° C. and 5% CO2. The following day, the plates are shaken on an orbital shaker for 1 minute at 900 rpm. Finally the top read fluorescence (Excitation: 355 nm, Emission: 460 nm) is measured using PerkinElmer EnVision.

Row | IC50 | SMILES
1 | > 50000 nM | Cc1c(F)cccc1[C@]1(C(=O)NO)C=C(c2ccccc2)CC1 [Example 1, (R)-1-(3-fluoro-2-methylphenyl)-N-hydroxy-3-phenylcyclopent-2-enecarboxamide]
2 | 170 nM | Cc1c(F)cccc1[C@@]1(C(=O)NO)C=C(c2ccccc2)CC1 [Example 2, (S)-1-(3-fluoro-2-methylphenyl)-N-hydroxy-3-phenylcyclopent-2-enecarboxamide]
3 | 4600 nM | Cc1ccccc1C1=C[C@@](C(=O)NO)(c2cccc(F)c2C)CC1 [Example 3, (R)-1-(3-fluoro-2-methyl-phenyl)-N-hydroxy-3-(o-tolyl)cyclopent-2-ene-1-carboxamide]
4 | 360 nM | Cc1ccccc1C1=C[C@](C(=O)NO)(c2cccc(F)c2C)CC1 [Example 4, (S)-1-(3-fluoro-2-methyl-phenyl)-N-hydroxy-3-(o-tolyl)cyclopent-2-ene-1-carboxamide]
5 | 6800 nM | Cc1c(F)cccc1[C@]1(C(=O)NO)C=C(c2cncc(F)c2)CC1 [Example 5, (R)-1-(3-fluoro-2-methylphenyl)-3-(5-fluoropyridin-3-yl)-N-hydroxycyclopent-2-enecarboxamide]
6 | 160 nM | Cc1c(F)cccc1[C@@]1(C(=O)NO)C=C(c2cncc(F)c2)CC1 [Example 6, (S)-1-(3-fluoro-2-methylphenyl)-3-(5-fluoropyridin-3-yl)-N-hydroxycyclopent-2-enecarboxamide]
7 | > 50000 nM | Cc1c(F)cccc1[C@]1(C(=O)NO)C=C(c2cnccn2)CC1 [Example 7, (R)-1-(3-fluoro-2-methylphenyl)-N-hydroxy-3-(pyrazin-2-yl)cyclopent-2-ene carboxamide]
8 | 15700 nM | Cc1c(F)cccc1[C@@]1(C(=O)NO)C=C(c2cnccn2)CC1 [Example 8, (S)-1-(3-fluoro-2-methylphenyl)-N-hydroxy-3-(pyrazin-2-yl)cyclopent-2-ene carboxamide]
9 | > 50000 nM | Cc1ncc(C2=C[C@@](C(=O)NO)(c3cccc(F)c3C)CC2)cn1 [Example 9, (R)-1-(3-fluoro-2-methylphenyl)-N-hydroxy-3-(2-methylpyrimidin-5-yl)cyclopent-2-enecarboxamide]
10 | 120 nM | Cc1c(F)cccc1[C@@]1(C(=O)NO)C=C(c2cncc(Cl)c2)CC1 [Example 11, (S)-3-(5-chloropyridin-3-yl)-1-(3-fluoro-2-methylphenyl)-N-hydroxycyclopent-2-enecarboxamide]
11 | 20 nM | Cc1c(F)cccc1[C@@]1(C(=O)NO)C=C(c2ccc3nccnc3c2)CC1 [Example 12, (S)-1-(3-fluoro-2-methylphenyl)-N-hydroxy-3-(quinoxalin-6-yl)cyclopent-2-enecarboxamide]
12 | 270 nM | Cc1c(F)cccc1[C@@]1(C(=O)NO)C=C(c2ccnc(C(F)(F)F)c2)CC1 [Example 13, (S)-1-(3-fluoro-2-methylphenyl)-N-hydroxy-3-(2-(trifluoromethyl)pyridin-4-yl)cyclopent-2-enecarboxamide]
13 | 360 nM | Cc1c(F)cccc1[C@@]1(C(=O)NO)C=C(c2cncnc2)CC1 [Example 14, (S)-1-(3-fluoro-2-methylphenyl)-N-hydroxy-3-(pyrimidin-5-yl)cyclopent-2-enecarboxamide]
14 | 310 nM | Cc1c(F)cccc1[C@@]1(C(=O)NO)C=C(c2ccc(F)cn2)CC1 [Example 15, (S)-1-(3-fluoro-2-methylphenyl)-3-(5-fluoropyridin-2-yl)-N-hydroxycyclopent-2-enecarboxamide]
15 | 100 nM | Cc1c(F)cccc1[C@@]1(C(=O)NO)C=C(c2ccc(C(F)(F)F)nc2)CC1 [Example 16, (S)-1-(3-fluoro-2-methylphenyl)-N-hydroxy-3-(6-(trifluoromethyl)pyridin-3-yl)cyclopent-2-enecarboxamide]
16 | 200 nM | Cc1c(F)cccc1[C@@]1(C(=O)NO)C=C(c2cncc(C(F)(F)F)c2)CC1 [Example 17, (S)-1-(3-fluoro-2-methylphenyl)-N-hydroxy-3-(5-(trifluoromethyl)pyridin-3-yl)cyclopent-2-enecarboxamide]
17 | 160 nM | Cc1c(F)cccc1[C@@]1(C(=O)NO)C=C(c2cnn(C(F)F)c2)CC1 [Example 18, (S)-3-(1-(difluoromethyl)-1H-pyrazol-4-yl)-1-(3-fluoro-2-methylphenyl)-N-hydroxycyclopent-2-enecarboxamide]
18 | 500 nM | Cc1c(F)cccc1[C@@]1(C(=O)NO)C=C(c2cc(F)cnc2C2CC2)CC1 [Example 19, (S)-3-(2-cyclopropyl-5-fluoropyridin-3-yl)-1-(3-fluoro-2-methylphenyl)-N-hydroxycyclopent-2-enecarboxamide]
19 | 140 nM | Cc1c(F)cccc1[C@@]1(C(=O)NO)C=C(c2ccc3nc(C(F)(F)F)cnc3c2)CC1 [Example 20, (S)-1-(3-fluoro-2-methylphenyl)-N-hydroxy-3-(2-(trifluoromethyl)quinoxalin-6-yl)cyclopent-2-enecarboxamide]
20 | 60 nM | Cc1c(F)cccc1[C@@]1(C(=O)NO)C=C(c2ccn3ccnc3c2)CC1 [Example 21, (S)-1-(3-fluoro-2-methylphenyl)-N-hydroxy-3-(imidazo[1,2-a]pyridin-7-yl)cyclopent-2-enecarboxamide]
21 | 60 nM | Cc1c(F)cccc1[C@@]1(C(=O)NO)C=C(c2ccc3onc(C)c3c2)CC1 [Example 22, (S)-1-(3-fluoro-2-methylphenyl)-N-hydroxy-3-(3-methylbenzo[d]isoxazol-5-yl)cyclopent-2-enecarboxamide]
22 | 220 nM | COc1ncc(C2=C[C@](C(=O)NO)(c3cccc(F)c3C)CC2)cc1F [Example 23, (S)-1-(3-fluoro-2-methylphenyl)-3-(5-fluoro-6-methoxypyridin-3-yl)-N-hydroxycyclopent-2-enecarboxamide]
23 | 80 nM | Cc1c(F)cccc1[C@@]1(C(=O)NO)C=C(c2cnc(C3CC3)nc2)CC1 [Example 24, (S)-3-(2-cyclopropylpyrimidin-5-yl)-1-(3-fluoro-2-methylphenyl)-N-hydroxycyclopent-2-enecarboxamide]
24 | 120 nM | Cc1ccc(C2=C[C@](C(=O)NO)(c3cccc(F)c3C)CC2)cn1 [Example 25, (S)-1-(3-fluoro-2-methylphenyl)-N-hydroxy-3-(6-methylpyridin-3-yl)cyclopent-2-enecarboxamide]
25 | 80 nM | Cc1ncc(C2=C[C@](C(=O)NO)(c3cccc(F)c3C)CC2)cc1Cl [Example 26, (S)-3-(5-chloro-6-methylpyridin-3-yl)-1-(3-fluoro-2-methylphenyl)-N-hydroxycyclopent-2-enecarboxamide]
26 | 330 nM | Cc1c(F)cccc1[C@@]1(C(=O)NO)C=C(c2ccnn2C)CC1 [Example 27, (S)-1-(3-fluoro-2-methylphenyl)-N-hydroxy-3-(1-methyl-1H-pyrazol-5-yl)cyclopent-2-enecarboxamide]
27 | 160 nM | Cc1c(F)cccc1[C@@]1(C(=O)NO)C=C(c2cnn(CC(F)(F)F)c2)CC1 [Example 28, (S)-1-(3-fluoro-2-methylphenyl)-N-hydroxy-3-(1-(2,2,2-trifluoroethyl)-1H-pyrazol-4-yl)cyclopent-2-enecarboxamide]
28 | 200 nM | Cc1c(F)cccc1[C@@]1(C(=O)NO)C=C(c2cccc3cnsc23)CC1 [Example 29, (S)-3-(benzo[d]isothiazol-7-yl)-1-(3-fluoro-2-methylphenyl)-N-hydroxycyclopent-2-enecarboxamide]
29 | > 50000 nM | O=C(NO)C1(c2ccccc2)CC=CC1 [Example 30, N-hydroxy-1-phenyl-cyclopent-3-enecarboxamide]
30 | 44500 nM | O=C(NO)C1(c2ccccc2F)CC=CC1 [Example 31, 1-(2-fluorophenyl)-N-hydroxy-cyclopent-3-enecarboxamide]
